Laboratory results published in PubChem BioAssay AID1919000 (Molecular Pharmacology Branch, DTP, NCI, 2023).

Test system: 653999-131-R-J2-PDC complex spheroids, growth % test/control
Assay: Anticancer human tumor 653999-131-R-J2-PDC patient-derived lung adenocarcinoma cell line growth inhibition [AhR]
Conditions: for IC50: curve of first compound; for viability, T/C: stronger effect = lower value
How it was run: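 Agents were dosed in half-log steps down from roughly clinical Cmax, or from 10 microM where Cmax was unknown, alone and with AhR antagonists. Read-out: percent test/control growth of tumor spheroids containing HUVEC and MSC stromal cells.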

[1] = second compound 0.1 µM, first compound 0.00949 µM
[2] = second compound 0.1 µM, first compound 0.03 µM
[3] = second compound 0.1 µM, first compound 0.0949 µM
[4] = second compound 0.1 µM, first compound 0.3 µM
[5] = second compound 0.1 µM, first compound 0.949 µM
[6] = second compound 0.1 µM, first compound 3 µM
[7] = second compound 0.316 µM, first compound 0.00949 µM
[8] = second compound 0.316 µM, first compound 0.03 µM
[9] = second compound 0.316 µM, first compound 0.0949 µM
[10] = second compound 0.316 µM, first compound 0.3 µM
[11] = second compound 0.316 µM, first compound 0.949 µM
[12] = second compound 0.316 µM, first compound 3 µM
[13] = second compound 1 µM, first compound 0.00949 µM
[14] = second compound 1 µM, first compound 0.03 µM
[15] = second compound 1 µM, first compound 0.0949 µM
[16] = second compound 1 µM, first compound 0.3 µM
[17] = second compound 1 µM, first compound 0.949 µM
[18] = second compound 1 µM, first compound 3 µM
[19] = second compound 3.16 µM, first compound 0.00949 µM
[20] = second compound 3.16 µM, first compound 0.03 µM
[21] = second compound 3.16 µM, first compound 0.0949 µM
[22] = second compound 3.16 µM, first compound 0.3 µM
[23] = second compound 3.16 µM, first compound 0.949 µM
[24] = second compound 3.16 µM, first compound 3 µM
[25] = second compound 10 µM, first compound 0.00949 µM
[26] = second compound 10 µM, first compound 0.03 µM
[27] = second compound 10 µM, first compound 0.0949 µM
[28] = second compound 10 µM, first compound 0.3 µM
[29] = second compound 10 µM, first compound 0.949 µM
[30] = second compound 10 µM, first compound 3 µM
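Also: spheroids exposed to agents for seven days.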
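For viability, T/C in this document: 100% = DMSO vehicle control viability.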

Nc1ccn(C2OC(CO)C(O)C2(F)F)c(=O)n1 (stereo not given) + Cc1ccccc1N=Nc1ccc(NC(=O)c2ccnn2C)c(C)c1 gave an IC50 (second compound 0.1 µM) of 532 nM, an IC50 (second compound 0.316 µM) of 371 nM and an IC50 (second compound 1 µM) of 940 nM. The IC50 (second compound 3.16 µM) was 454 nM, the IC50 (second compound 10 µM) was 2960 nM and the viability, T/C (second compound 0.1 µM, first compound 0.0316 µM) was 64.2%. It also gave a viability, T/C (second compound 0.1 µM, first compound 0.1 µM) of 65%, a viability, T/C (second compound 0.1 µM, first compound 0.316 µM) of 49.3% and a viability, T/C (second compound 0.1 µM, first compound 1 µM) of 44.9%. It also gave a viability, T/C (second compound 0.1 µM, first compound 3.16 µM) of 42.9%, a viability, T/C (second compound 0.1 µM, first compound 10 µM) of 34.2% and a viability, T/C (second compound 0.316 µM, first compound 0.0316 µM) of 70.6%. For the same molecule, the viability, T/C (second compound 0.316 µM, first compound 0.1 µM) was 60.9%, the viability, T/C (second compound 0.316 µM, first compound 0.316 µM) was 52.8% and the viability, T/C (second compound 0.316 µM, first compound 1 µM) was 39.8%. The viability, T/C (second compound 0.316 µM, first compound 3.16 µM) was 43.5%, the viability, T/C (second compound 0.316 µM, first compound 10 µM) was 36.8% and the viability, T/C (second compound 1 µM, first compound 0.0316 µM) was 69.2%. It also gave a viability, T/C (second compound 1 µM, first compound 0.1 µM) of 66.4%, a viability, T/C (second compound 1 µM, first compound 0.316 µM) of 60.5% and a viability, T/C (second compound 1 µM, first compound 1 µM) of 44.4%. The viability, T/C (second compound 1 µM, first compound 3.16 µM) was 43.5%, the viability, T/C (second compound 1 µM, first compound 10 µM) was 36% and the viability, T/C (second compound 3.16 µM, first compound 0.0316 µM) was 72.5%. For the same molecule, the viability, T/C (second compound 3.16 µM, first compound 0.1 µM) was 62.4%, the viability, T/C (second compound 3.16 µM, first compound 0.316 µM) was 51.5% and the viability, T/C (second compound 3.16 µM, first compound 1 µM) was 44.9%. For the same molecule, the viability, T/C (second compound 3.16 µM, first compound 3.16 µM) was 42.1%, the viability, T/C (second compound 3.16 µM, first compound 10 µM) was 38.7% and the viability, T/C (second compound 10 µM, first compound 0.0316 µM) was 66.8%. For the same molecule, the viability, T/C (second compound 10 µM, first compound 0.1 µM) was 65.5%, the viability, T/C (second compound 10 µM, first compound 0.316 µM) was 65.2% and the viability, T/C (second compound 10 µM, first compound 1 µM) was 50.3%. For the same molecule, the viability, T/C (second compound 10 µM, first compound 3.16 µM) was 46.1% and the viability, T/C (second compound 10 µM, first compound 10 µM) was 48.5%.

In the case of O=C(C=Cn1cnc(-c2cc(C(F)(F)F)cc(C(F)(F)F)c2)n1)NNc1cnccn1 + Cc1cncc(-c2nc(NCCc3c[nH]c4ccccc34)c3ncn(C(C)C)c3n2)c1, the IC50 (second compound 0.1 µM) is reported as 233 nM, the IC50 (second compound 0.316 µM) is reported as 293 nM and the IC50 (second compound 1 µM) is reported as 514 nM. The IC50 (second compound 3.16 µM) was 376 nM, the IC50 (second compound 10 µM) was 48.5 nM and the viability, T/C [1] was 91.2%. For the same molecule, the viability, T/C [2] was 65.8%, the viability, T/C [3] was 62.2% and the viability, T/C [4] was 45.2%. For the same molecule, the viability, T/C [5] was 43.8%, the viability, T/C [6] was 38.3% and the viability, T/C [7] was 85%. The viability, T/C [8] was 74%, the viability, T/C [9] was 64.2% and the viability, T/C [10] was 50.3%. The viability, T/C [11] was 39.3%, the viability, T/C [12] was 43.1% and the viability, T/C [13] was 95.9%. It also gave a viability, T/C [14] of 77.8%, a viability, T/C [15] of 66.4% and a viability, T/C [16] of 50.1%. It also gave a viability, T/C [17] of 48.4%, a viability, T/C [18] of 42.1% and a viability, T/C [19] of 95.4%. It also gave a viability, T/C [20] of 86.7%, a viability, T/C [21] of 74.9% and a viability, T/C [22] of 51.5%. For the same molecule, the viability, T/C [23] was 40.9%, the viability, T/C [24] was 41% and the viability, T/C [25] was 59.2%. For the same molecule, the viability, T/C [26] was 49.8%, the viability, T/C [27] was 52.2% and the viability, T/C [28] was 40%. For the same molecule, the viability, T/C [29] was 34.9% and the viability, T/C [30] was 37.6%.

Work on CCN(c1cc(-c2ccc(CN3CCOCC3)cc2)cc(C(=O)NCc2c(C)cc(C)[nH]c2=O)c1C)C1CCOCC1 + CC(CO)NC(=O)c1cc(-c2ccc(Cl)cc2)nn(-c2cnn(C)c2)c1=O yielded an IC50 (second compound 0.1 µM) of over 3000 nM, an IC50 (second compound 0.316 µM) of over 3000 nM and an IC50 (second compound 1 µM) of over 3000 nM. It also gave an IC50 (second compound 3.16 µM) of over 3000 nM, an IC50 (second compound 10 µM) of over 3000 nM and a viability, T/C [1] of 112%. For the same molecule, the viability, T/C [2] was 97.6%, the viability, T/C [3] was 120% and the viability, T/C [4] was 95.9%. It also gave a viability, T/C [5] of 93.9%, a viability, T/C [6] of 90% and a viability, T/C [7] of 119%. It also gave a viability, T/C [8] of 107%, a viability, T/C [9] of 101% and a viability, T/C [10] of 94.6%. It also gave a viability, T/C [11] of 101%, a viability, T/C [12] of 94.1% and a viability, T/C [13] of 115%. For the same molecule, the viability, T/C [14] was 134%, the viability, T/C [15] was 115% and the viability, T/C [16] was 114%. The viability, T/C [17] was 105%, the viability, T/C [18] was 102% and the viability, T/C [19] was 112%. The viability, T/C [20] was 113%, the viability, T/C [21] was 119% and the viability, T/C [22] was 114%. The viability, T/C [23] was 106%, the viability, T/C [24] was 99.6% and the viability, T/C [25] was 111%. It also gave a viability, T/C [26] of 117%, a viability, T/C [27] of 130% and a viability, T/C [28] of 114%. For the same molecule, the viability, T/C [29] was 105% and the viability, T/C [30] was 96.1%.
